# Test results: patent publication US9999760B2, “DVDMS sensitizer for cancer sonodynamic therapy” (priority 2015, dated 2018)
# Tests used:
# [1] = test system: tumor cells (K562, U937) and normal cells; assay: Cellular uptake by flow cytometry in tumor cells and normal cells; assay type: cell-based; details: tumor cells compared with normal healthy cells
# Description: (§1) Two kinds of leukemia cells (K562, U937) as main tumor cell models and cells (peripheral blood mononuclear cells, spleen lymphocytes) separated from healthy ICR mice as normal cell models were used. The multivolume spectrophotometer system and fluorescence spectrophotometer were used to determine the spectral characteristics of DVDMS. The uptake of DVDMS by tumor cells and normal cells was measured by flow cytometry. The MTT assay was used to examine the cytotoxicity and sonotoxicity of DVDMS.
# [2] = test system: peripheral blood mononuclear cells, spleen lymphocytes; assay: MTT assay of cytotoxicity in normal cells; assay type: cell-based, ICR mice
# Description: as §1
# [3] = test system: 4T1 mammary cancer; assay: Photodynamic therapy in 4T1 mammary cancer-bearing mice; assay type: in vivo; details: for tumor volume inhibition ratio: 17th day
# Description: At the beginning, we have pointed out that DVDMS is an active component isolated from Photofrin™ II. So it would be very interesting to compare the in vivo anti-cancer efficacy of DVDMS-PDT with PHOTOFRIN™-PDT (PF-PDT).
# Representative mice were photographed at 6, 12, or 18 days after the corresponding treatments. […] However, tumor size decreased in a dose-dependent manner with increasing DVDMS and light exposure.
# The tumor volume and tumor weight results were evaluated for each group.
# On the 19th day, the tumors were photographed and the average tumor weight in each group was calculated.
# [4] = test system: leukemia cells (K562, U937); assay: MTT assay of cytotoxicity and sonotoxicity in leukemia cells; assay type: cell-based
# Description: as §1
# [5] = Spectral characteristics (absorption and fluorescence emission spectra); assay type: physicochemical
# Description: as §1
# [6] = test system: skin; assay: Dermatological phototoxicity and skin retention after treatment; set-up: species or system patient; details: in vivo
# [7] = test system: ECA-109 cells; assay: Sonodynamic therapy in ECA-109 cells; assay type: cell-based
# Excerpt: Abundant intracellular reactive oxygen species (ROS) was found in the SDT groups, and the cytotoxicity induced by SDT was effectively remitted by ROS scavengers. […] Release of cytochrome C, an increased rate of apoptosis, and activated apoptosis protein were detected in the SDT group. In addition, relatively severe cell damage was observed on scanning electron microscopy after treatment with DVDMS and SDT.
# [8] = test system: brain stem tumor; assay: Clinical cases of SDT for tumors of the brain stem; assay type: in vivo, patient
# Description: Below are two typical clinical cases where SDT was selected for treatment of tumors of the brain stem. For Photofrin™ the dosage was 2 mg/kg of body weight. For DVDMS, the dosage was 0.2 mg/kg of body weight, a factor of ten less than Photofrin™. The ultrasound frequency was 0.5 to 1 MHz and the ultrasound power was 0.1 W/cm^2 to 1.5 W/cm^2. Ultrasound treatment is delayed after injection to permit absorbance of the sonodynamic compound into the tumor or other hyperproliferative tissue. In the case of Photofrin™ the delay is extensive, e.g. 20 to 30 hours. […] Due to differential absorption times into tumor, patient was intravenously injected with Photofrin™ 24 hours before ultrasound treatment and DVDMS was intravenously injected two hours prior to ultrasound treatment. Treatment occurred each time for 20-30 minutes and total time to treat three times was 72 hours.
# [9] = test system: sarcoma 180 solid tumors; assay: Sonodynamic antitumor effect in mice bearing sarcoma 180 solid tumors; assay type: in vivo
# Description: In order to determine the optimum timing of ultrasound exposure after administration of DVDMS, a three-dimensional optical imaging system (IVIS spectrum) was used to observe the biodistribution of DVDMS in S180 tumor. The antitumor effects were estimated by the tumor inhibition ratio (volume and weight) after sonodynamic therapy. […] A significant synergistic effect of ultrasound combined with DVDMS was obtained when the load power indicated 4 W and DVDMS dose was above 2 mg/kg. […] Conclusions: DVDMS is a potential sensitizer for sonodynamic cancer therapy. The antitumor effect of ultrasound could be enhanced in the presence of DVDMS, which might be involved in a sonochemical mechanism.
# [10] = test system: cancerous and normal cells; assay: Autofluorescence intensity and singlet oxygen production in cells; assay type: cell-based; details: compared with other photosensitizers / Photofrin
structure (smiles),measurement,setting,value
C=Cc1c(C)c2cc3nc(cc4[nH]c(cc5nc(cc1[nH]2)C(C)=C5C(C)OC(C)C1=C(C)c2cc5[nH]c(cc6nc(cc7[nH]c(cc1n2)c(C)c7CCC(=O)[O-])C(CCC(=O)[O-])=C6C)c(C)c5C=C)c(C)c4CCC(=O)[O-])C(CCC(=O)[O-])=C3C.[Na+].[Na+].[Na+].[Na+] (stereo not shown) [DVDMS],cellular uptake and accumulation,[1],quick cellular uptake and selective accumulation in tumor cells
same,cytotoxicity to normal cells,[2],little cytotoxicity
same,tumor size versus PF group,"[3]; 2 mg/kg DVDMS vs 10 mg/kg PF, same light exposure 100 J/cm^2",less than in the 10 mg/kg PF group
same,tumor volume inhibition ratio,"[3]; 1 mg/kg DVDMS+50 J/cm^2, vs control",38.51%
same,tumor volume inhibition ratio,"[3]; 2 mg/kg DVDMS alone, vs control",7.42%
same,tumor volume inhibition ratio,"[3]; 2 mg/kg DVDMS+50 J/cm^2, vs control",59.23%
same,tumor volume inhibition ratio,"[3]; 2 mg/kg DVDMS+100 J/cm^2, vs control",66.97%
same,tumor volume inhibition ratio,"[3]; 2 mg/kg DVDMS+150 J/cm^2, vs control",78.12%
same,tumor volume inhibition ratio,"[3]; group (2) mg/kg DVDMS+50 J/cm^2 (dose not given), vs control",18.61%
same,survival of tumor-bearing mice,[3]; DVDMS-PDT compared to control and DVDMS-only groups (p<0.01),significantly prolonged
same,survival of tumor-bearing mice versus PF-PDT,[3]; DVDMS-PDT vs PF-PDT (p<0.05),more effective than PF-PDT
same,tumor volume and tumor weight,"[3]; nineteen days after treatment, DVDMS plus light exposure vs control or DVDMS alone",significantly lower
same,sonotoxicity: cell-damaging effect of ultrasound in the presence of DVDMS,"[4]; MTT, under appropriate conditions",significantly enhanced
same,cytotoxicity by the MTT method,[4]; without ultrasound,dose dependent
same,"absorption spectra, maximum peak",[5],359 nm
same,fluorescence emission,[5],642 nm
same,dermatological phototoxicity,[6],lacking dermatological phototoxicity
same,subcellular location,[7],mainly to the mitochondria
same,SDT cytotoxicity,[7]; compared with hematoporphyrin,more cytotoxic
same,time to what appears to be complete remission,"[8]; SDT, 0.2 mg/kg",≤ 30 days
same,absorbance into the tumor after injection,[8]; compared with Photofrin,absorbance is much quicker
same,efficacy in sonic treatment relative to Photofrin II,[8]; injected into a host,about ten times higher
same,cranial MRI on review after SDT treatment,"[8]; patient, 0.2 mg/kg","tumor was absorbed, brain stem edema was significantly reduced"
same,head MRI 30 days after treatment,"[8]; patient, 0.2 mg/kg",ventral brain stem tumor has disappeared
same,tumor weight inhibition ratio,"[9]; DVDMS alone, no ultrasound",23.15%
same,biodistribution (IVIS spectrum optical imaging),[9]; S180 tumor-bearing mice,"preferential localization in tumors, but a low accumulation in most normal tissues"
same,metastasis,[9]; SDT-treated mice compared with the control group,no metastasis occurred
same,tumor volume inhibition ratio,[9]; day 14 after DVDMS-SDT,56.27%
same,tumor weight inhibition ratio,[9]; synergistic treatment (ultrasound combined with DVDMS),55.37%
same,autofluorescence intensity,[10],significantly higher
same,singlet oxygen production efficiency,[10],significantly higher
